Test results reported in US6479531B1, “Gastrin and cholecystokinin receptor ligands” (James Black Foundation Limited, priority 1998, dated 2002).

Assays:
CCKB receptor = target: T1, CCKB receptor (Mus musculus, UniProt P56481); experiment: CCKB receptor radioligand binding assay in mouse cortical membranes; conditions: [125I]-CCK8(S) 200 pM, 150 min at 21±3°, read-out: CCKB pKi (converted)
T1 construct: The whole brains from male mice (CD1 22-25 g; Charles River) were removed; from tissue; host or cells: cerebral cortex membranes of male CD1 mice
T1 sequence (P56481 1-453): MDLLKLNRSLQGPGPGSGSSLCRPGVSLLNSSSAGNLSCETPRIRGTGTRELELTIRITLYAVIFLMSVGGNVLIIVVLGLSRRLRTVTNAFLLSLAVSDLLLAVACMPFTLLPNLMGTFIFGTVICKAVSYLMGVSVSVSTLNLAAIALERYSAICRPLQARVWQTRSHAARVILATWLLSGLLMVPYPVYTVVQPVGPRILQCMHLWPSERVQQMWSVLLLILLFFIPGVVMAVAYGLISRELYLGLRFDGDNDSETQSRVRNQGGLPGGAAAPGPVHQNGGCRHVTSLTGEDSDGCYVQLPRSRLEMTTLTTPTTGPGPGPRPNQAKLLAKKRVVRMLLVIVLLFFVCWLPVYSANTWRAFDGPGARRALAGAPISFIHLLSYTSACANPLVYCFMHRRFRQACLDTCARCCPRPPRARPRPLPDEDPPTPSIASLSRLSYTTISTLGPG
Summary of the method: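 Bound radioactivity was gamma-counted after rapid GF/B filtration and cold 50 mM Tris-HCl (pH 7.4) washes. The tissue was cerebral cortex from male CD1 mice, prepared as twice-centrifuged membranes in pH 7.2 HEPES/NaCl/KCl/MgCl2/EDTA buffer with bacitracin at 20 mg/ml original wet weight.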

gastrin receptor = target: T2, gastrin receptor (Rattus norvegicus, UniProt P30553); experiment: gastrin antagonist activity in immature rat stomach assay (pentagastrin dose-response, acid secretion); conditions: isolated immature rat stomach, cumulative pentagastrin dose-response curves, read-out: Gastrin pKb (converted)
T2 construct: The stomach was excised and flushed with ca. 1 ml of unbuffered physiological saline solution; from tissue; host or cells: isolated whole stomach of immature rats (ca. 21 days old)
T2 sequence (P30553 1-452): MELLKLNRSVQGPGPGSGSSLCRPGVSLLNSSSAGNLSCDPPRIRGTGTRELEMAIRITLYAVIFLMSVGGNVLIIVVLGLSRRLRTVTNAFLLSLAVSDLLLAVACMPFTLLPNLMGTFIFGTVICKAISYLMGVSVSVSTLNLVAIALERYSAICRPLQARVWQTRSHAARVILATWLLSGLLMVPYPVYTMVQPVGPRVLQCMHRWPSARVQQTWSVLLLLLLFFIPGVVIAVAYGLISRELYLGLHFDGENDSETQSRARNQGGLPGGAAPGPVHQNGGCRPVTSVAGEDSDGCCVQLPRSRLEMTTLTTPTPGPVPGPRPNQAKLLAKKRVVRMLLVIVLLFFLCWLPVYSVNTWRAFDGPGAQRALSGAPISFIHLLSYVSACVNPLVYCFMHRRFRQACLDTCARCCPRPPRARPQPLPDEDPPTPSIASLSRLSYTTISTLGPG
Summary of the method: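 Gastrin antagonism was measured as the effect on cumulative pentagastrin dose-response curves of acid output, recorded by pH electrode in the perfusate of an excised immature rat stomach (ca. 21 days old). Test compound was placed in the serosal bath (37°, 3×10^−8 M 5-methylfurmethide) 60 min before pentagastrin.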

Row | Ki (CCKB receptor) [nM] | Kb (gastrin receptor) [nM] | SMILES
1 | 245 | 64.6 | O=C(O)c1cccc(NC(=O)c2nc(C3CCCCC3)[nH]c2CCC2CCCCC2)c1 [Example 168, 3-{[2-Cyclohexyl-5-(2-cyclohexyl-ethyl)-1H-imidazole-4-carbonyl]-amino}-benzoic Acid]
2 | 132 | 75.9 | Cc1ccc(NC(=O)c2nc(-c3ccccc3C)[nH]c2CCC2CCCCC2)cc1C(=O)O [Example 169, 5-{[5-(2-Cyclohexyl-ethyl)-2-o-tolyl-1H-imidazole-4-carbonyl]-amino}-2-methyl-benzoic Acid]
3 | 141 | 38.9 | O=C(O)c1cccc(NC(=O)c2nc(C3CCCCC3)[nH]c2CCCC23CC4CC(CC(C4)C2)C3)c1 [Example 171, 3-{[5-(3-Adamantan-1-yl-propyl)-2-cyclohexyl-1H-imidazole-4-carbonyl]-amino}-benzoic Acid]
4 | 21.4 | 3.72 | O=C(O)c1cccc(NC(=O)c2nc(C3CCCCC3)[nH]c2CCC2C3CC4CC(C3)CC2C4)c1 (stereo not shown) [Example 172, 3-{[5-(2-Adamantan-2-yl-ethyl)-2-cyclohexyl-1H-imidazole-4-carbonyl]-amino}-benzoic Acid]
5 | 6.17 | 4.79 | Cc1ccc(NC(=O)c2nc(C3CCCCC3)[nH]c2CCC2C3CC4CC(C3)CC2C4)cc1C(=O)O (stereo not shown) [Example 173, 5-{[5-(2-Adamantan-2-yl-ethyl)-2-cyclohexyl-1H-imidazole-4-carbonyl]-amino}-2-methyl-benzoic Acid]
6 | 251 | 204 | CC12CC3CC(C)(C1)CC(CCc1[nH]c(C4CCCCC4)nc1C(=O)Nc1cccc(C(=O)O)c1)(C3)C2 [Example 174, 3-({2-Cyclohexyl-5-[2-(3,5-dimethyl-adamantan-1-yl)-ethyl]-1H-imidazole-4-carbonyl}-amino)-benzoic Acid]
7 | 603 | 151 | O=C(O)c1cccc(NC(=O)c2nc(-c3cccnc3)[nH]c2CCC23CC4CC(CC(C4)C2)C3)c1 [Example 177, 3-{[5-(2-Adamantan-1-yl-ethyl)-2-pyridine-3-yl-1H-imidazole-4-carbonyl]-amino}-benzoic Acid]
8 | 245 | 166 | O=C(O)c1cccc(NC(=O)c2nc(-c3ccccn3)[nH]c2CCC23CC4CC(CC(C4)C2)C3)c1 [Example 178, 3-{[5-(2-Adamantan-1-yl-ethyl)-2-pyridine-2-yl-1H-imidazole-4-carbonyl]-amino}-benzoic Acid]
9 | 40.7 | 46.8 | Cc1ccc(NC(=O)c2nc(-c3ccccn3)[nH]c2CCC23CC4CC(CC(C4)C2)C3)cc1C(=O)O [Example 179, 5-{[5-(2-Adamantan-1-yl-ethyl)-2-pyridine-2-yl-1H-imidazole-4-carbonyl]-amino}-2methyl-benzoic Acid]
10 | 457 | 155 | O=C(O)c1cccc(NC(=O)c2nc(-c3ccco3)[nH]c2CCC23CC4CC(CC(C4)C2)C3)c1 [Example 185, 3-{[5-(2-Adamantan-1-yl-ethyl)-2-furan-2-yl-1H-imidazole-4-carbonyl]-amino}benzoic Acid]
11 | 155 | 11 | O=C(O)c1cccc(NC(=O)c2nc(C3CCCO3)[nH]c2CCC23CC4CC(CC(C4)C2)C3)c1 (stereo not shown) [Example 186, 3-{[5-(2-Adamantan-1-yl-ethyl)-2-(tetrahydro-furan-2-yl)-1H-imidazole-4-carbonyl]-amino}-benzoic Acid]
12 | 60.3 | 75.9 | Cc1ccc(NC(=O)c2nc(-c3ccco3)[nH]c2CCC23CC4CC(CC(C4)C2)C3)cc1C(=O)O [Example 187, 5-{[5-(2-Adamantan-1-yl-ethyl)-2-furan-2-yl-1H-imidazole-4-carbonyl]-amino}-2-methyl-benzoic Acid]
13 | 25.7 | 7.76 | Cc1ccc(NC(=O)c2nc(C3CCCO3)[nH]c2CCC23CC4CC(CC(C4)C2)C3)cc1C(=O)O (stereo not shown) [Example 188, 5-{[5-(2-Adamantan-1-yl-ethyl)-2-(tetrahydro-furan-2-yl)-1H-imidazole-4-carbonyl]-amino}-2-methyl-benzoic Acid]
14 | 174 | 4.17 | CC1(C)C2CCC(c3nc(C(=O)Nc4cccc(C(=O)O)c4)c(CCC45CC6CC(CC(C6)C4)C5)[nH]3)C1C2 (stereo not shown) [Example 190, 3-{[5-(2-Adamantan-1-yl-ethyl)-2-(6,6-dimethyl-bicyclo[3.1.1]hept-2-yl)-1H-imidazole-4-carbonyl]-amino}-benzoic Acid]
15 | 28.8 | 67.6 | Cc1ccc(NC(=O)c2nc(C3CCC4CC3C4(C)C)[nH]c2CCC23CC4CC(CC(C4)C2)C3)cc1C(=O)O (stereo not shown) [Example 191, 5-{[5-(2-Adamantan-1-yl-ethyl)-2-(6,6-dimethyl-bicyclo[3.1.1]hept-2-yl)-1H-imidazole-4-carbonyl]-amino}-2-methyl-benzoic Acid]
16 | 66.1 | 141 | CC1(C)C2CC=C(c3nc(C(=O)Nc4cccc(C(=O)O)c4)c(CCC45CC6CC(CC(C6)C4)C5)[nH]3)C1C2 (stereo not shown) [Example 192, 3-{[5-(2-Adamantan-1-yl-ethyl)-2-(6,6-dimethyl-bicyclo[3.1.1]hept-2-en-2-yl)-1H-imidazole-4-carbonyl]-amino}-benzoic Acid]
17 | 57.5 | 20.4 | O=C(O)c1cccc(NC(=O)c2nc(CC3CCCCC3)[nH]c2CCC23CC4CC(CC(C4)C2)C3)c1 [Example 193, 3-{[5-(2-Adamantan-1-yl-ethyl)-2-cyclohexylmethyl-1H-imidazole-4-carbonyl]-amino}-benzoic Acid]
18 | 158 | 525 | CC(C)C1CCC(c2nc(C(=O)Nc3cccc(C(=O)O)c3)c(CCC34CC5CC(CC(C5)C3)C4)[nH]2)CC1 (stereo not shown) [Example 194, 3-{[5-(2-Adamantan-1-yl-ethyl)-2-(4-isopropyl-cyclohexyl)-1H-imidazole-4-carbonyl]-amino}-benzoic Acid]
19 | 42.7 | 6.61 | O=C(O)c1cccc(NC(=O)c2nc(C3CC=CCC3)[nH]c2CCC23CC4CC(CC(C4)C2)C3)c1 (stereo not shown) [Example 195, 3-{[5-(2-Adamantan-1-yl-ethyl)-2-cyclohex-3-enyl-1H-imidazole-4-carbonyl]-amino}-benzoic Acid]
20 | 38 | 7.08 | O=C(O)c1cccc(NC(=O)c2[nH]c(C3CCCC3)nc2CCC23CC4CC(CC(C4)C2)C3)c1 [Example 196, 3-{[5-(2-Adamantan-1-ethyl)-2-cyclopentyl-1H-imidazole-4-carbonyl]-amino}-benzoic Acid]
21 | 776 | 70.8 | O=C(O)c1cccc(NC(=O)c2[nH]c(C3CC3)nc2CCC23CC4CC(CC(C4)C2)C3)c1 [Example 197, 3-{[5-(2-Adamantan-1-yl-ethyl)-2-cyclopropyl-1H-imidazole-4-carbonyl]-amino}-benzoic Acid]
22 | 8.71 | 8.13 | Cc1ccc(NC(=O)c2nc(C(C)(C)C)[nH]c2CCC23CC4CC(CC(C4)C2)C3)cc1C(=O)O [Example 198, 5-{[5-(2-Adamantan-1-yl-ethyl)-2-tert-butyl-1H-imidazole-4-carbonyl]-amino}-2-methyl-benzoic Acid]
23 | 17.8 | 1.62 | CC1(c2nc(C(=O)Nc3cccc(C(=O)O)c3)c(CCC34CC5CC(CC(C5)C3)C4)[nH]2)CCCCC1 [Example 199, 3-{[5-(2-Adamantan-1-yl-ethyl)-2-(1-methyl-cyclohexyl)-1H-imidazole-4-carbonyl]-amino}-benzoic Acid]
